Format in all cases: cell-based
In series [1] the test system is tumor necrosis factor α (TNF-α). The series is described as follows: TNF-α secretion by ELISA in LPS-treated RAW 264.7 macrophages. As to conditions: RAW 264.7, serum-free medium, 1 or 10 μM 2 hours, then 10 ng/mL LPS 6 hours, FIG. 17. As to the method:
(§1) RAW 264.7 macrophages were used as in Test Example 2. A serum-free medium without comprising FBS was used for the measurement of the amount of cytokines. After pretreating the cells for 2 hours with each ginsenoside at 1 or 10 μM under the same condition as in Test Example 1 and then treating with 10 ng/mL LPS for 6 hours, only the medium was recovered and the secretion of pro-inflammatory cytokines, tumor necrosis factor α (TNF-α), interleukin 1β (IL-1β) and IL-6, was measured using an enzyme-linked immunosorbent assay kit (Abcam).

A further series has as its system interleukin 1β (IL-1β). The series is described as follows: IL-1β secretion by ELISA in LPS-treated RAW 264.7 macrophages. As to conditions: RAW 264.7, serum-free medium, 1 or 10 μM 2 hours, then 10 ng/mL LPS 6 hours, FIG. 18. The protocol: as §1
(In general: ELISA stands for enzyme-linked immunosorbent assay.)

The test system of series [2] is IL-6. The series is described as follows: IL-6 secretion by ELISA in LPS-treated RAW 264.7 macrophages. The conditions noted are these: RAW 264.7, serum-free medium, 1 or 10 μM 2 hours, then 10 ng/mL LPS 6 hours, FIG. 19. As to the method: as §1
The next series has as its system IL-1β. The series can be described thus: IL-1β gene expression by qPCR in LPS-treated RAW 264.7 macrophages. As to conditions: then 10 ng/mL LPS 6 hours. The protocol: (§2) RAW 264.7 macrophages purchased from ATCC were cultured in Dulbecco's modified Eagle's medium (Sigma) supplemented with 10% fetal bovine serum (FBS; HyClone) and 1% penicillin/streptomycin (Sigma) in a 5% CO2 incubator. After pretreating the RAW 264.7 cells with each of the 7 ginsenosides extracted from ginseng seed (GS #01 to GS #06 and GS #10; 10 μM each) for 2 hours, the cells were further treated with 10 ng/mL lipopolysaccharide (LPS; inflammation-induced group, Sigma) for 6 hours. Then, after extracting RNA using a Trizol™ reagent (Thermo Fisher Scientific), cDNA was synthesized using a RevertAid™ first-strand cDNA synthesis kit (Thermo Fisher Scientific). The expression of inflammation-related genes (IL-1β, IL-6 and iNOS) was observed using a CFX96 real-time quantitative PCR (qPCR) system (Bio-Rad).
(§3) RAW 264.7 macrophages were pretreated with ginsenosides Rg1, Rg3 and Rb1 (purchased from Sigma), which are marker compounds of red ginseng, as comparative examples of the present disclosure or the novel ginsenoside GS #10 (isolated from the ginseng seed extract) as an example of the present disclosure at 1 or 10 μM for 2 hours and then further treated with 10 ng/mL lipopolysaccharide (LPS) for 6 hours to induce inflammation. Then, after extracting RNA and synthesizing cDNA in the same manner as in Test Example 1, the expression of inflammation-related genes was observed by qPCR. […]
On the technique in general: Real-time PCR tracks product formation cycle by cycle.

In series [3] the test system is IL-6. The series can be described thus: IL-6 gene expression by qPCR in LPS-treated RAW 264.7 macrophages. As to conditions: then 10 ng/mL LPS 6 hours. As to the method:
as §2, §3

The next series concerns iNOS. The series can be described thus: iNOS gene expression by qPCR in LPS-treated RAW 264.7 macrophages. The conditions noted are these: then 10 ng/mL LPS 6 hours. The protocol: as §2, §3
The subject of series [4] is inflammation-related genes (IL-1β, IL-6 and iNOS). The series is described as follows: Overall anti-inflammatory effect from qPCR of inflammation-related genes (Test Example 2). The conditions noted are these: RAW 264.7; 1 or 10 μM, LPS 10 ng/mL; relative to Rg1; FIGS. 14-16. The protocol:
as §2, §3

For series [5], the system named is nitric oxide (NO) production in RAW264.7 macrophages. The series can be described thus: Nitric oxide (NO) production by Griess reaction in LPS-treated RAW 264.7 macrophages. As to conditions: 1 or 10 μM 1 hour, then 10 ng/mL LPS 1 hour, FIG. 20. As to the method: RAW 264.7 macrophages were treated with 10 μM L-NAME (NO production inhibitor; control group; Sigma), ginsenosides Rg1, Rg3 and Rb1 (purchased from Sigma), which are marker compounds of red ginseng, as comparative examples of the present disclosure or the novel ginsenoside GS #10 (extracted from ginseng seed) as an example of the present disclosure at 1 or 10 μM for 1 hour, and then treated with 10 ng/mL LPS for 1 hour. The amount of NO produced during 1 hour was measured using the Griess reaction. Briefly, after adding 50 μL of sulfanilamide solution to 50 μL of each ginsenoside sample, the mixture was incubated for 10 minutes at room temperature under protection from light. Then, after adding N-(1-napthyl)ethylenediamine solution (50 μL), the mixture was further incubated for 10 minutes at room temperature under protection from light. The […] of NO was measured at a wavelength of 540 nm using a Tecan Infinite® 200 Pro multiplate reader. Sodium nitrite (NaNO2) was used to create a standard curve.
(In general: Nitrite, measured by Griess reagent, commonly stands in for NO production.)

In a further series the test system is SH-SY5Y cells. The series is described as follows: Cytotoxicity, cell viability by CCK-8. As to conditions: 0.1, 1, 5, 10, 20 and 50 μM, FIG. 21. As to the method: After adding 10 μL of CCK-8 reagent to SH-SY5Y cells (Dojindo, MD, USA) on a 96-well plate and maintaining at 37° C. for 2 hours, absorbance was measured at 450 nm.
Cell viability was represented as the percentage (%) of the absolute optical density of each sample with respect to an untreated sample. The concentrations of the novel ginsenoside GS #10 according to an exemplary embodiment of the present disclosure in the medium for culturing the cells were 0.1, 1, 5, 10, 20 and 50 μM.

Structures are written as SMILES. “Also recorded” adds a separate entry of the source.

For the compound `CC(C)=CCC[C@](C)(O[C@@H]1O[C@H](CO[C@@H]2O[C@H](CO)[C@@H](O)[C@H](O)[C@H]2O)[C@@H](O)[C@H](O)[C@H]1O)[C@H]1CC[C@]2(C)[C@@H]1[C@H](O)C[C@@H]1[C@@]3(C)CC[C@H](O[C@@H]4O[C@H](CO)[C@@H](O)[C@H](O)[C@H]4O[C@@H]4O[C@H](CO)[C@@H](O)[C@H](O)[C@H]4O)C(C)(C)[C@@H]3CC[C@]12C` [Rb1, ginsenoside Rb1], the “secretion of TNF-α” value in series [1] was “decreased”. In addition, the “secretion of IL-1β” value in the series with interleukin 1β (IL-1β) is “decreased”. The “secretion of IL-6” value in the series with IL-6 [2] is recorded as “decreased”.

Turning to `CC1(C)C(=O)CC[C@@]2(C)C1[C@@H](O[C@H]1OC(CO)[C@H](O)C(O)C1O[C@H]1OC(CO)[C@H](O)C(O)C1O)C[C@]1(C)C2C[C@@H](O)C2C([C@]3(C)CC[C@H](C(C)(C)O)O3)CC[C@]21C` (stereo partly drawn) [Compound 10, (20S,24R)-6-O-β-D-glucopyranosyl(1→2)-β-D-glucopyranoside-dammar-3-one-20,24-epoxy-6a,12b,25-triol], the “expression level of the IL-1β gene” value with IL-1β (10 μM pretreatment 2 hours, compared to Compounds 1-6 at the same concentration, FIG. 11) is given as “remarkably suppress”. Further, the “anti-inflammatory effect (IL-1β expression level)” value with IL-1β (1 or 10 μM for 2 hours, compared to Rg1, Rg3 and Rb1, FIG. 14) is “remarkably excellent anti-inflammatory effect”. Further, the “expression level of the IL-6 gene” value with IL-6 [3] (10 μM pretreatment 2 hours, compared to Compounds 1-6 at the same concentration, FIG. 12) is reported as “remarkably suppress”. The “anti-inflammatory effect (IL-6 expression level)” value in the series with IL-6 [3] (1 or 10 μM for 2 hours, compared to Rg1, Rg3 and Rb1, FIG. 15) is “remarkably excellent anti-inflammatory effect”. Moreover, in the series on iNOS (10 μM pretreatment 2 hours, compared to Compounds 1-6 at the same concentration, FIG. 13), the “expression level of the iNOS gene” value was “remarkably suppress”. The “anti-inflammatory effect (iNOS expression level)” value with iNOS (1 or 10 μM for 2 hours, compared to Rg1, Rg3 and Rb1, FIG. 16, listed as GS #10) is recorded as “remarkably excellent anti-inflammatory effect; also recorded: decreased greatly”. For the same compound, the “anti-inflammatory effect superior to that of Rg1” value in [4] is “about 10 times”. The “secretion of TNF-α” value in [1] is listed as “significant decreased secretion”. Also, the “secretion of IL-1β” value in the series on interleukin 1β (IL-1β) is recorded as “significant decreased secretion”. Moreover, the “secretion of IL-6” value in the series on IL-6 [2] is “significant decreased secretion”. Moreover, the “NO production-inhibiting ability compared to Rg1, Rg3 and Rb1” value in [5] is listed as “remarkably superior”. Also, the NO production result in series [5] (with increasing dosage) is listed as “decreased”. The “cytotoxicity (cell viability, % of untreated sample)” value in the series with SH-SY5Y cells is recorded as “no cytotoxicity”.

Regarding `CC(C)=CCC[C@](C)(O)[C@H]1CC[C@]2(C)[C@@H]1[C@H](O)C[C@@H]1[C@@]3(C)CC[C@H](O[C@@H]4O[C@H](CO)[C@@H](O)[C@H](O)[C@H]4O[C@@H]4O[C@H](CO)[C@@H](O)[C@H](O)[C@H]4O)C(C)(C)[C@@H]3CC[C@]12C` [Rg3, ginsenoside Rg3], the “secretion of TNF-α” value in series [1] was “decreased”. In addition, the “secretion of IL-1β” value with interleukin 1β (IL-1β) is given as “decreased”. The “secretion of IL-6” value in the series with IL-6 [2] is “decreased”.

With `CC(C)=CCC[C@](C)(O[C@@H]1O[C@H](CO)[C@@H](O)[C@H](O)[C@H]1O)[C@H]1CC[C@]2(C)[C@@H]1[C@H](O)C[C@@H]1[C@@]3(C)CC[C@H](O)C(C)(C)[C@@H]3[C@@H](O[C@@H]3O[C@H](CO)[C@@H](O)[C@H](O)[C@H]3O)C[C@]12C` [Rg1, ginsenoside Rg1], in series [1], the “secretion of TNF-α” value is on record as “decreased”. Besides, the “secretion of IL-1β” value with interleukin 1β (IL-1β) was “decreased”. Moreover, the “secretion of IL-6” value with IL-6 [2] is “decreased”.

These data come from patent US12252508B2, “Ginsenoside and anti-inflammatory composition comprising same” (AMOREPACIFIC CORPORATION, priority 2018, dated 2025).
